Source: patent publication US6544561B2 (The Lachlan Family Pty Ltd., priority 1997, dated 2003)

How the values were obtained:
[1] = tested on: outbred (Swiss) female mice; conditions: drinking water with Mg2+ 120 mg per liter from weaning, fed on alternate days
Method: A short-lived mammalian species was chosen. […] Two hundred outbred (Swiss) female mice were divided randomly at weaning into two groups of 100 mice and were maintained under identical management and environmental conditions.
The second group of mice was supplied with drinking water that contained magnesium sulphate (Epsom salts) 1 gram per liter with a pH value between pH 6.5 and pH 7.0. This drinking water contained approximately Mg^2+ 120mg per liter. Bicarbonate anions were absent.
Both groups of mice were fed commercial laboratory food that contained 1 gram of magnesium per kilogram of food. Both groups of mice were fed on alternate days with no food available on the other days. Group-specific drinking water (as described above) was available at all times.

[2] = tested on: post menopausal women with osteoarthritis in the joints of their hands; conditions: in vivo
From the text: For an experimental trial, a group of post menopausal women were chosen who had clinical signs of osteoarthritis in the joints of their hands. The osteoarthritic joints included the distal and proximal interphalangeal joints of the fingers and the carpometacarpal joint of the thumbs. In all cases, loss of joint function was moderate to severe.
In all cases, the women suffered pain, swelling of the fingers and loss of joint movement. […] Women with affected thumbs had considerable loss of function and considerable pain. […] The women consumed between 2 to 3 liters of bicarbonate solution per day. […] Consumption was commenced at half a liter per day and increased by increments over a period of one month to 2 to 3 liters per day. Consumption occurred on an empty stomach to avoid the loss of bicarbonate by stomach acid. Consumption occurred in small amounts (300 mL) at set times each day to avoid rapid increases in bicarbonate concentrations of body fluids.

[3] = with lowered body weight; text refers to the trial of Example 5
Method: A trial involving people consuming bicarbonate anions in water was conducted. These people were middle aged and overweight and complained of tiredness and lethargy. No control group was maintained for the duration of the trial (people in an initial control group were unable to consume the volumes of soft water required). […] They were requested to decrease their food (calorie) intake considerably and to avoid dietary fats.
Bicarbonate concentration was established at a maximum of one gram per liter.
Each participant in the trial was advised to consume the bicarbonate solution ‘on an empty stomach’. […] Advice was given also to consume the solution in small amounts at set times each day. Consumption in this manner avoided a rapid increase in the bicarbonate concentrations of body fluids.

In the case of `O=S(=O)([O-])[O-].[Mg+2]` [magnesium sulphate, reference compound], the “Fifty Percent Survival” value [1] is reported as 736 days and the “Maximum Life Span” value [1] is reported as 1040 days.
With magnesium bicarbonate the “Fifty Percent Survival” value [1] was 790 days, the “Maximum Life Span” value [1] was 1152 days and the “Pain and swelling associated with osteoarthritis” value [2] was “alleviated the pain and swelling associated with osteoarthritis”. The Blood pressure [3] was “reduction in high blood pressure to a normal value”.
